Experimental findings from paper PMC8269107, “Lipidation of Temporin-1CEb Derivatives as a Tool for Activity Improvement, Pros and Cons of the Approach” (International Journal of Molecular Sciences, 2021) are described below.

Values after ≈ are worked out from the molar mass of the structure shown. Where a SMILES comes first, the peptide text is derived from it. [ ]: non-standard residue; d: D form. The star is where a group is joined. Palmitoyl = CCCCCCCCCCCCCCCC(=O)*; Lauroyl = CCCCCCCCCCCC(=O)*; Pentanoyl = CCCCC(=O)*; AEEA = NCCOCCOCC(=O)O; Ahx = NCCCCCC(=O)O; βAla = NCCC(=O)O

For one assay, the system named is C.parapsilosis CCM 8260. Put plainly: MIC, broth microdilution. The following applies: C.parapsilosis CCM 8260, 24 h. Type of assay: cell-based, Candida parapsilosis. An excerpt:
(§1) Escherichia coli (PCM 2057 = ATCC 25922), Staphylococcus aureus (PCM 2054 = ATCC 25923), Staphylococcus epidermidis (PCM 2118 = ATCC 14990), Bacillus subtilis (PCM 2224 = ATCC 9799), Bacillus cereus (PCM 482 = ATCC 10702) and Pseudomonas aeruginosa (PCM 499 = ATCC 10145) were obtained from the Polish Collection of Microorganisms. Fungi strains Candida albicans (CCM 8186 = CNTC 49/64), Candida glabrata (CCM 8270 = ATCC 90030), Candida parapsilosis (CCM 8260 = ATCC 22019) and Candida krusei (CCM 8271 = ATCC 6258) were acquired from the Czech Collection of Microorganisms. S. aureus USA300 (wild type strain), the reference strain of Klebsiella pneumoniae (ATCC 13883) and clinical isolates of Pseudomonas aeruginosa (PA1, PA2) collected from nonrelated patients admitted to the Stefan Zeromski Specialist Municipal Hospital in Krakow (Poland) were kindly provided by the research group of the Department of Microbiology, Faculty of Biochemistry, Biophysics and Biotechnology, Jagiellonian University, Krakow, Poland.
(§2) Luria-Bertani broth (LB) and Sabouraud Dextrose broth (SB) (Biocorp, Poland) were used for cultivation of bacteria and fungi strains, respectively. The antimicrobial activity of the peptides were analyzed through determination of MIC (minimal inhibitory concentration) parameters according to Clinical and Laboratory Standards (CLSI) guidelines developed for aerobic bacteria and yeasts, respectively. Mueller-Hinton broth (MHB) was used as the working medium for all bacterial strains, while in the case of fungi, RPMI-1640 (with L-glutamine, without sodium bicarbonate) growth medium buffered with MOPS (morpholinepropanesulfonic acid) and supplemented with 2% glucose was used. Inoculum was prepared from freshly grown cultures of microorganisms at their exponential phase of growth. […] Plates were then incubated for 24 h at 37 °C in the case of bacteria and at 35 °C in the case of fungi. After that time, absorbance was read at 590 nm with a Perkin Elmer plate reader. Cultures without peptide were treated as positive control, while uninoculated media were defined as negative control. All measurements were run at least in triplicate.

The subject of the next assay is S. aureus PCM 2054. Put plainly: MIC, broth microdilution. The following applies: S. aureus PCM 2054, standard Mueller-Hinton broth, 24 h. Type of assay: cell-based, Staphylococcus aureus.
Excerpt: as §1, §2
(In broth dilution the organism is exposed to a series of concentrations in liquid medium.)

A further assay relates to P. aeruginosa PCM 499. Put plainly: MIC, broth microdilution. Type of assay: cell-based, Pseudomonas aeruginosa. The note with it: P. aeruginosa PCM 499, 24 h.
Excerpt: as §1, §2

Assay [1] concerns S. aureus (PCM 2054) biofilm. Put plainly: Biofilm inhibition assay (MTT). Type of assay: cell-based, Staphylococcus aureus. The note with it: S. aureus biofilm development, 24 h post-inoculation. The protocol:
(§3) In the case of bacteria, an overnight culture of S. aureus in Tryptic Soy Broth (TSB) supplemented with 2% glucose (TSB/+G) was used to prepare inoculum for the experiments. Briefly, 5 mL of 24 h culture was centrifuged at 5000× g, washed with sterile PBS and suspended in a fresh 2 × concentrated TSB/+G. In the case of yeasts, the overnight culture of C. albicans in Sabouraud dextrose broth (SB) was used for inoculum preparation. Similar to above, 5 mL of 24 h culture was centrifuged, washed with PBS and then suspended in sterile 2 × concentrated RPMI-1640 medium (with L-glutamine, without sodium bicarbonate) supplemented with 2% glucose (RPMI-1640/+G). In both cases, the cell concentration of the inoculum was about 1 × 10^7 cells per ml.
(§4) For the determination of the inhibitory concentration that reduced biofilm development by 50% (BIC50^, expressed in µg/mL), 100 µL inoculum in 2 × concentrated RPMI-1640/+G medium (in the case of C. albicans) or 2 x concentrated TSB/+G broth (in the case of S. aureus) was transferred to each well of 96-well plates containing 100 µL of serially diluted in water tested compounds. The final concentrations of the compounds were the same as those used in MIC determination studies. The 96-well plates were then incubated for 24 h at 37 °C and 35 °C in the case of bacteria and fungi, respectively. Viability of the microorganisms in the presence of the tested compounds was analyzed by means of MTT assay.
(§5) The reduction in biofilm viability was analyzed by means of MTT assay. Briefly, 20 μL of MTT solution (5 mg/mL in PBS) was added to prewashed wells with exchanged medium (180 μL of fresh medium) wells containing bacterial/yeast biofilms. Plates were then incubated in the dark for the next 3 h at 37 °C. After that time, the medium was replaced with 6 mM HCl in isopropanol and, when the reduced MTT was fully dissolved, the plates were read at 570 nm. Activity against fully developed 24 h old biofilm was described as biofilm eradication concentration (BEC50 expressed in µg/mL), which corresponded to the concentration of the compound able to reduce 50% of biofilm viability compared with the growth control.

For assay [2], the system named is C. albicans (CCM 8186) biofilm. Put plainly: Biofilm inhibition assay (MTT). Type of assay: cell-based, Candida albicans. The note with it: C. albicans biofilm development, 24 h post-inoculation. How it is done: as §3, §4, §5
In assay [3] the test system is C. albicans (CCM 8186) biofilm. Put plainly: Biofilm eradication assay, pre-formed 24 h old biofilm (MTT). Type of assay: cell-based, Candida albicans. The note with it: C. albicans pre-formed 24 h old biofilm, 24 h treatment. The protocol:
In the case of yeasts, the overnight culture of C. albicans in Sabouraud dextrose broth (SB) was used for inoculum preparation. Similar to above, 5 mL of 24 h culture was centrifuged, washed with PBS and then suspended in sterile RPMI-1640 medium (with L-glutamine, without sodium bicarbonate) supplemented with 2% glucose (RPMI-1640/+G) yielding the amount of about 1 × 10^7 cells per ml. Subsequently, 200 µL of yeast suspension was transferred into each well of a microtiter plate, and it was incubated stationary for the next 24 h at 35 °C.
After that, each well of the plates containing bacterial or fungi biofilm was washed three times with PBS in order to remove all non-adherent cells. Then, peptide solutions of 200 µL ranging from 50 to 0,39 µg/mL prepared in TSB +/G in the case of experiments on S. aureus biofilm, and (RPMI-1640/+G) in the case of C. alibcans, were prepared and transferred into the microtiter plates. After the addition of the peptides, the experiments were continued for the next 24 h.
as §5

Another assay deals with K.pneumoniae ATCC 13883. The format is cell-based, Klebsiella pneumoniae. The following applies: K.pneumoniae ATCC 13883.
Excerpt: as §1, §2

For another assay, the system named is S. aureus USA300. Type of assay: cell-based, Staphylococcus aureus.
Excerpt: as §1, §2

`CC[C@H](C)[C@H](NC(=O)COCCOCCNC(=O)[C@H](Cc1c[nH]cn1)NC(=O)CCNC(=O)CCCCCN)C(=O)N[C@@H](CCCCN)C(=O)N[C@@H](CCCCN)C(=O)N[C@H](C(=O)N[C@@H](CC(C)C)C(=O)N[C@@H](CO)C(=O)N[C@@H](CCCCN)C(=O)N[C@H](C(=O)N[C@@H](CCCCN)C(=O)N[C@@H](CCCCN)C(=O)N[C@@H](CC(C)C)C(=O)N[C@@H](CC(C)C)C(N)=O)[C@@H](C)CC)[C@@H](C)CC` [AHX-CAR-PEG-DK5] (H-[Ahx][βAla]H[AEEA]IKKILSKIKKLL-NH2): the values for the MIC100 against C.parapsilosis CCM 8260, in the assay with S. aureus PCM 2054 and against P. aeruginosa PCM 499 were 50 µg/mL (≈ 26.4 µM), more than 50 µg/mL and more than 50 µg/mL, respectively. In addition, the BIC50 in assay [1] and in assay [2] was more than 50 µg/mL throughout. Moreover, in assay [3], the BEC50 is on record as 20 µg/mL.

As for `CC[C@H](C)[C@H](NC(=O)CCCCCN)C(=O)N[C@@H](CCCCN)C(=O)N[C@@H](CCCCN)C(=O)N[C@H](C(=O)N[C@@H](CC(C)C)C(=O)N[C@@H](CO)C(=O)N[C@@H](CCCCN)C(=O)N[C@H](C(=O)N[C@@H](CCCCN)C(=O)N[C@@H](CCCCN)C(=O)N[C@@H](CC(C)C)C(=O)N[C@@H](CC(C)C)C(N)=O)[C@@H](C)CC)[C@@H](C)CC` [AHX-DK5] (H-[Ahx]IKKILSKIKKLL-NH2), the MIC100 is listed as 12.5 µg/mL (≈ 8.13 µM) with C.parapsilosis CCM 8260, more than 50 µg/mL in the assay on S. aureus PCM 2054 and 25 µg/mL (≈ 16.3 µM) with P. aeruginosa PCM 499. Further, the results for the BIC50 in assay [1] and in assay [2] were 6.25 µg/mL and 25 µg/mL, respectively. In assay [3], the BEC50 came to 25 µg/mL.

Take `CCCCC(=O)NCCC(=O)N[C@@H](Cc1c[nH]cn1)C(=O)NCCOCCOCC(=O)N[C@H](C(=O)N[C@@H](CCCCN)C(=O)N[C@@H](CCCCN)C(=O)N[C@H](C(=O)N[C@@H](CC(C)C)C(=O)N[C@@H](CO)C(=O)N[C@@H](CCCCN)C(=O)N[C@H](C(=O)N[C@@H](CCCCN)C(=O)N[C@@H](CCCCN)C(=O)N[C@@H](CC(C)C)C(=O)N[C@@H](CC(C)C)C(N)=O)[C@@H](C)CC)[C@@H](C)CC)[C@@H](C)CC` [C5-CAR-PEG-DK5] ({Pentanoyl-βAla}-H[AEEA]IKKILSKIKKLL-NH2): the MIC100 in the assay on C.parapsilosis CCM 8260 is recorded as 50 µg/mL (≈ 26.9 µM); in the assay on S. aureus PCM 2054, more than 50 µg/mL; with P. aeruginosa PCM 499, more than 50 µg/mL. Also, the BIC50 in assay [1] and in assay [2] was more than 50 µg/mL in each case. Moreover, the BEC50 in assay [3] worked out at 20 µg/mL.

As to `CCCCCCCCCCCC(=O)NCCC(=O)N[C@@H](Cc1c[nH]cn1)C(=O)NCCOCCOCC(=O)N[C@H](C(=O)N[C@@H](CCCCN)C(=O)N[C@@H](CCCCN)C(=O)N[C@H](C(=O)N[C@@H](CC(C)C)C(=O)N[C@@H](CO)C(=O)N[C@@H](CCCCN)C(=O)N[C@H](C(=O)N[C@@H](CCCCN)C(=O)N[C@@H](CCCCN)C(=O)N[C@@H](CC(C)C)C(=O)N[C@@H](CC(C)C)C(N)=O)[C@@H](C)CC)[C@@H](C)CC)[C@@H](C)CC` [C12-CAR-PEG-DK5] ({Lauroyl-βAla}-H[AEEA]IKKILSKIKKLL-NH2), the MIC100 with C.parapsilosis CCM 8260 came out at 3.13 µg/mL (≈ 1.6 µM); against S. aureus PCM 2054, 6.25 µg/mL (≈ 3.19 µM); against P. aeruginosa PCM 499, 12.5 µg/mL (≈ 6.38 µM); against K.pneumoniae ATCC 13883, 12.5 µg/mL (≈ 6.38 µM); in the assay with S. aureus USA300, 12.5 µg/mL (≈ 6.38 µM). In assay [3], this compound gave a BEC50 of 12.5 µg/mL.

Consider `CCCCCCCCCCCCCCCC(=O)NCCC(=O)N[C@@H](Cc1c[nH]cn1)C(=O)NCCOCCOCC(=O)N[C@H](C(=O)N[C@@H](CCCCN)C(=O)N[C@@H](CCCCN)C(=O)N[C@H](C(=O)N[C@@H](CC(C)C)C(=O)N[C@@H](CO)C(=O)N[C@@H](CCCCN)C(=O)N[C@H](C(=O)N[C@@H](CCCCN)C(=O)N[C@@H](CCCCN)C(=O)N[C@@H](CC(C)C)C(=O)N[C@@H](CC(C)C)C(N)=O)[C@@H](C)CC)[C@@H](C)CC)[C@@H](C)CC` [C16-CAR-PEG-DK5] ({Palmitoyl-βAla}-H[AEEA]IKKILSKIKKLL-NH2), for which the values for the MIC100 against C.parapsilosis CCM 8260, in the assay on S. aureus PCM 2054 and against P. aeruginosa PCM 499 were 6.25 µg/mL (≈ 3.1 µM), more than 50 µg/mL and more than 50 µg/mL, respectively. In addition, the BIC50 in assay [1] is 10 µg/mL; in assay [2], 25 µg/mL. In assay [3], this compound gave a BEC50 of 15 µg/mL.

As for `CCCCCCCCCCCC(=O)N[C@H](C(=O)N[C@@H](CCCCN)C(=O)N[C@@H](CCCCN)C(=O)N[C@H](C(=O)N[C@@H](CC(C)C)C(=O)N[C@@H](CO)C(=O)N[C@@H](CCCCN)C(=O)N[C@H](C(=O)N[C@@H](CCCCN)C(=O)N[C@@H](CCCCN)C(=O)N[C@@H](CC(C)C)C(=O)N[C@@H](CC(C)C)C(N)=O)[C@@H](C)CC)[C@@H](C)CC)[C@@H](C)CC` [Compound C12-DK5] (Lauroyl-IKKILSKIKKLL-NH2), the MIC100 amounted to 3.13 µg/mL (≈ 1.95 µM) in the assay on C.parapsilosis CCM 8260; 6.25 µg/mL (≈ 3.89 µM) in the assay on S. aureus PCM 2054; 12.5 µg/mL (≈ 7.78 µM) in the assay with P. aeruginosa PCM 499; 25 µg/mL (≈ 15.6 µM) with K.pneumoniae ATCC 13883; 25 µg/mL (≈ 15.6 µM) against S. aureus USA300. For the same compound, the BIC50 in assay [1] and in assay [2] was 6.25 µg/mL each time.

With `CCCCCCCCCCCCCCCC(=O)N[C@H](C(=O)N[C@@H](CCCCN)C(=O)N[C@@H](CCCCN)C(=O)N[C@H](C(=O)N[C@@H](CC(C)C)C(=O)N[C@@H](CO)C(=O)N[C@@H](CCCCN)C(=O)N[C@H](C(=O)N[C@@H](CCCCN)C(=O)N[C@@H](CCCCN)C(=O)N[C@@H](CC(C)C)C(=O)N[C@@H](CC(C)C)C(N)=O)[C@@H](C)CC)[C@@H](C)CC)[C@@H](C)CC` [Compound C16-DK5] (Palmitoyl-IKKILSKIKKLL-NH2), the MIC100 in the assay on S. aureus PCM 2054 and against P. aeruginosa PCM 499 was more than 50 µg/mL throughout. For the same compound, the BIC50 in assay [1] is on record as 6.25 µg/mL; in assay [2], more than 50 µg/mL. The compound also had a BEC50 in assay [3] of 12.5 µg/mL.
